Among the data in PubChem BioAssay (NCI) are GI50 and TGI values, retold here.

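The compound was tested at five concentrations on cells cultured in 96-well plates, with a 48-hour exposure period. Here, GI50 denotes the concentration required for 50% inhibition of growth. The concentration for full growth arrest is given as TGI.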

Common to all, as to assay: DTP human tumour cell line panel, 48 h
Experiment [1] has as its system RXF 393 renal.
For experiment [2], the system named is ACHN renal.
Experiment [3] has as its system SNB-75 CNS.
Experiment [4] has as its system NCI/ADR-RES ovarian.
Experiment [5] deals with SF-295 CNS.
The test system of experiment [6] is OVCAR-5 ovarian.
In experiment [7] the test system is MOLT-4 leukemia.
In experiment [8] the test system is OVCAR-3 ovarian.
Experiment [9] deals with SW-620 colon.
Experiment [10] relates to HOP-62 NSCLC.

On to `COc1ccc(N=N/C(=N\NC(=O)c2cc(Br)ccc2O)c2ccc(N(CCC#N)CCC#N)cc2OC)cc1`, for which the GI50 is 50.2 µg/mL in [1]; 85.7 µg/mL in experiment [2]; 27.6 µg/mL in [3]; 42 µg/mL in experiment [4]; 73.8 µg/mL in [5]; 108 µg/mL in [6]. Besides, the GI50 in [7] was 52 µg/mL; in experiment [8], 51.4 µg/mL; in experiment [9], more than 150 µg/mL. Further, the TGI in experiment [1] is more than 150 µg/mL; in [2], more than 150 µg/mL; in [3] it was 86.8 µg/mL; in experiment [4], more than 150 µg/mL; in experiment [5], more than 150 µg/mL; in [6] it was more than 150 µg/mL. Further, the concentration for total growth inhibition (TGI) in [7], in experiment [8] and in experiment [9] was more than 150 µg/mL in each case.

Take `CCC1=C[C@@H]2CN(C1)Cc1c([nH]c3ccccc13)[C@@](C(=O)OC)(c1cc3c(cc1OC)N(C)[C@H]1[C@@](O)(C(=O)OC)[C@H](OC(C)=O)[C@]4(CC)C=CCN5CC[C@]31[C@@H]54)C2`: the 50% growth inhibitory concentration (GI50) in experiment [10] is less than 0.0148 µM; in experiment [2], 0.194 µM; in experiment [3], less than 0.01 µM; in [4], 1.58 µM; in experiment [5] it was less than 0.01 µM; in [6], less than 0.01 µM. The GI50 in [7], in experiment [8] and in experiment [9] was less than 0.01 µM in each case. Moreover, the TGI in experiment [10] is 24.4 µM; in experiment [2] it was 25.6 µM; in experiment [3], 7.92 µM; in [4], 30.5 µM; in experiment [6] it was 27.2 µM; in experiment [7] it was 3.5 µM. Further, the TGI in experiment [8] was less than 0.01 µM; in experiment [9], 17.9 µM.

Take `C[C@]12CCCN1CC1=NNC(=O)c3cc(F)cc4[nH]c2c1c34`: the GI50 in experiment [10] is 20.1 µM; in [2] it was 21.1 µM; in experiment [3] it was 13.6 µM; in experiment [4], 20 µM; in [5], 16.1 µM; in [6] it was 20.2 µM. For the same molecule, the GI50 is 22.3 µM in experiment [7], 17.8 µM in [8] and 16.7 µM in [9]. For the same molecule, the TGI was 89.4 µM in [10]; more than 100 µM in [2]; 35.9 µM in experiment [3]; 71.8 µM in experiment [4]; 51.1 µM in experiment [5]; more than 100 µM in experiment [6]. The TGI in experiment [7], in experiment [8] and in experiment [9] was more than 100 µM in each case.

Take `COc1cccc(CCNC(=O)CC(c2ccccc2)(c2ccccc2)c2ccccc2)c1`: the GI50 in experiment [10] is 59.4 µM; in experiment [2], 7.84 µM; in experiment [3], more than 100 µM; in experiment [4] it was 5.26 µM; in [5], 4.36 µM; in experiment [6], 11.7 µM. The GI50 in experiment [7] was 6.01 µM; in [8] it was 4.77 µM; in [9] it was 85.3 µM. In addition, the TGI in experiment [10] was more than 100 µM; in experiment [2], 94.8 µM; in [3], more than 100 µM; in [4], more than 100 µM; in [5] it was more than 100 µM; in experiment [6], more than 100 µM. Moreover, the TGI in experiment [7], in experiment [8] and in experiment [9] was more than 100 µM in each case.

In the case of `CS(=O)(=O)c1ccc2c(c1)C(=O)c1c-2n(CCCBr)c(=O)c2cc([N+](=O)[O-])ccc12`, the GI50 is 8.14 µM in experiment [10]; 4.98 µM in experiment [2]; 12.8 µM in experiment [3]; 27.3 µM in experiment [4]; 2.07 µM in [5]; more than 100 µM in [6]. For the same molecule, the GI50 in experiment [7] was 1.94 µM; in experiment [8], 28.8 µM; in [9], 0.683 µM. Besides, the TGI is more than 100 µM in [10]; more than 100 µM in experiment [2]; 42.2 µM in [3]; more than 100 µM in [4]; 33.5 µM in experiment [5]; more than 100 µM in experiment [6]. Further, the TGI in experiment [7], in [8] and in experiment [9] was more than 100 µM throughout.

For `COc1ccc(NC(=S)C#N)cc1`, the total growth inhibition concentration (TGI) in experiment [1], in [10], in experiment [2], in [3], in experiment [4] and in [5] was more than 100 µM each time. Besides, the TGI in experiment [6], in [8] and in experiment [9] was more than 100 µM throughout.

With `O=C1CC(C(=O)O)Cc2c(Br)ccc(O)c21` (stereo not given), the total growth inhibition concentration (TGI) in experiment [1], in experiment [10], in experiment [2], in [4], in [5] and in [6] was more than 100 µM in each case. The TGI in [7] and in experiment [8] was more than 100 µM each time.

As for `Cc1cncc(-c2nc(NCCc3c[nH]c4ccccc34)c3ncn(C(C)C)c3n2)c1`, the GI50 in [1] is 2.54 µM; in experiment [10] it was 6.01 µM; in experiment [2], 3.76 µM; in experiment [3] it was 4.87 µM; in experiment [4], 3.69 µM; in [5] it was 2.74 µM. Moreover, the GI50 in [6] is 3.45 µM; in [8], 5.67 µM; in experiment [9], 3.48 µM. The TGI in [1] came out at 11.2 µM; in experiment [10], 22.9 µM; in experiment [2], 13.5 µM; in experiment [3] it was 21.1 µM; in [4], 24 µM; in experiment [5], 10.8 µM. For the same molecule, the concentration for total growth inhibition (TGI) in experiment [6] was determined as 18.4 µM; in [8], 40.9 µM; in experiment [9], 15.1 µM.

Turning to `C[C@@H]1CC[C@H]2[C@@H](C)C(OC/C=C/COC3O[C@@H]4O[C@@]5(C)CC[C@H]6[C@H](C)CC[C@@H]([C@H]3C)[C@@]46OO5)O[C@@H]3O[C@@]4(C)CC[C@@H]1[C@]32OO4` (stereo not given in full), the GI50 in experiment [1] is less than 0.01 µM; in experiment [10], 0.0791 µM; in experiment [2], less than 0.0169 µM; in experiment [4], 0.0887 µM; in [5] it was less than 0.0252 µM; in experiment [6], less than 0.01 µM. Further, the values for the GI50 in experiment [7], in [8] and in experiment [9] were less than 0.01 µM, less than 0.0109 µM and less than 0.01 µM, respectively. Further, the TGI was 28.2 µM in experiment [1]; 34.2 µM in [10]; 14.8 µM in experiment [4]; 0.257 µM in experiment [6]; more than 47.2 µM in experiment [7]; 1.07 µM in experiment [8]. In experiment [9], this molecule came in with a TGI of more than 100 µM.

The term GI50 denotes the concentration that inhibits growth by half. Broadly, the TGI is the concentration giving total growth inhibition. Read a low TGI as greater sensitivity of the cells.
